Data from US4965280A, “Antifungal carbinols” (E. I. Du Pont de Nemours and Company, priority 1989, dated 1990).

Columns and labels:
[1] = system: BONANZA BARLEY; assay: Test E; assay type: in vivo, Hordeum vulgare cv. Bonanza
[2] = system: CMN CHICKWEED; assay: Test E; assay type: in vivo, Stellaria media
[3] = system: BLACKGRASS; assay: Test E; assay type: in vivo, Alopercurus mysuroides
Excerpt: Seeds of the following crops and weeds are sown into 15 cm pots containing Sassafras sandy loam soil: wheat (Triticum aestivum cv. Park), barley (Hordeum vulgare cv. Bonanza), sugarbeet (Beta vulgaris cv. USH-11), rapeseed (Brassica napus cv. Jet Neuf), black nightshade (Solanum nigrum), chickweed (Stellaria media), lambsquarter (Chenopodium album), Galium aparine, knotweed (Polygonum aviculare), Kochia scoparia, Matricaria indora, redroot pigweed (Amaranthus retroflexus), smartweed (Polygonum persicaria), speedwell (Veronica persica), wild buckwheat (Polygonum convolvulus), wild mustard (Brassica spp.), wild radish (Raphanus raphanistrum), annual bluegrass (PO annua), annual ryegrass (Lolium multiflorum), blackgrass (Alopercurus mysuroides), green foxtail (Setaria viridis), and wild oats (Avena fatua). Compounds are formulated in a nonphytotoxic solvent and applied to the plants as a foliar spray or applied to the soil surface. Plants are treated at two stages: preemergence, or postemergence when the sugarbeets are at the 2-3 true leaf stage. Plants are grown in a temperature-controlled greenhouse for the duration of the test.
Weed control and crop injury are evaluated visually at 3-4 weeks after compound application, using a scale of 0 to 100%, where 0=no injury and 100=complete death of the plant. All plants are rated with respect to untreated plants (checks) grown in the greenhouse under identical conditions to the treated plants.

[4] = system: WILD OATS; assay: Test E; assay type: in vivo, Avena fatua
[5] = system: SNTLS CHAMOMILE; assay: Test E; assay type: in vivo, Matricaria indora
[6] = system: ITALN. RYEGRASS; assay: Test E; assay type: in vivo, Lolium multiflorum
[7] = system: KOCHIA; assay: Test E; assay type: in vivo, Kochia scoparia
[8] = system: G522 SORGHUM; assay: Test D; assay type: in vivo, Sorghum bicolor
[9] = system: LAMBSQUARTER; assay: Test D; assay type: in vivo, Chenopodium album
[10] = system: PURPLE NUTSEDGE; assay: Test D; assay type: in vivo, Cyperus rotundus
[11] = system: PERLITE CORN; assay: Test D, soil covered with perlite; assay type: in vivo, Zea mays
Description: (§1) The Corn and Sorghum Herbicide Test included the following species in both the preemergence and postemergence evaluations:
(§2) Postemergence plantings were grown in Sassafras sandy loam soil. Corn and soybeans were grown in separate 25 cm diameter containers. Sorghum and the seven grass weed species were grown in two 18 cm diameter containers, 4 species per container. The seven broadleaf weed species were also grown in two 18 cm diameter containers, 4 species in one container, 3 species in the second container. One additional planting of corn in an 18 cm diameter container was made. The soil surface of this additional container of corn was covered with the absorbent, perlite, before spray treatment so that test chemicals would enter the plant only via the foliage. The plants were grown 10-21 days, dependent upon the species and then sprayed postemergence with the test chemicals dissolved in a nonpytotoxic solvent.
(§3) Treated plants and controls were maintained in the greenhouse for 2 to 4 weeks. Visual planting response ratings were made on a percentage scale of 0 to 100 in comparison with a control where 0=no injury, and 100=death.

[12] = system: BARNYARDGRASS; assay: Test D; assay type: in vivo, Echinochloa crus-galli
Description: as §1, §2
(§4) Preemergence plantings were grown in fertilized Tama silt loam soil. These plantings are identical to those described in the postemergence section, with the exception of the corn planting having perlite covering the soil surface. These plantings were made the day of or the day before spraying the test chemicals dissolved in a nonphytotoxic solvent.
as §3

[13] = system: LADY SMARTWEED; assay: Test D; assay type: in vivo, Polygonum persicaris
Description: as §1, §2, §4, §3

[14] = system: GIANT FOXTAIL; assay: Test D; assay type: in vivo, Setaria faberii
[15] = system: COCKLEBUR; assay: Test D; assay type: in vivo, Xanthium pensylvanicum

Measured: plant response

C=C(c1ccccc1)C(O)(Cn1cncn1)c1ccc(F)cc1F (centres unmarked) [Example 52, 2-(2,4-Difluorophenyl)-3-phenyl-1-(1H-1,2,4-triazol-1-yl)-3-buten-2-ol]
40%: [1]; POSTEMERGENCE 0500 GM/HA
0%: [1]; POSTEMERGENCE 0064 GM/HA | [2]; POSTEMERGENCE 0064 GM/HA | [2]; POSTEMERGENCE 0125 GM/HA | [2]; POSTEMERGENCE 0250 GM/HA | [2]; POSTEMERGENCE 0500 GM/HA | [2]; PREEMERGENCE 0250 GM/HA | [3]; POSTEMERGENCE 0064 GM/HA | [3]; POSTEMERGENCE 0125 GM/HA | [4]; POSTEMERGENCE 0064 GM/HA | [4]; POSTEMERGENCE 0125 GM/HA | [6]; POSTEMERGENCE 0064 GM/HA | [7]; POSTEMERGENCE 0064 GM/HA | [7]; POSTEMERGENCE 0125 GM/HA | [7]; POSTEMERGENCE 0250 GM/HA | [7]; PREEMERGENCE 0250 GM/HA
30%: [4]; POSTEMERGENCE 0500 GM/HA
100%: [1]; PREEMERGENCE 0250 GM/HA | [5]; PREEMERGENCE 0250 GM/HA
80%: [6]; POSTEMERGENCE 0500 GM/HA
70%: [4]; PREEMERGENCE 0250 GM/HA | [6]; PREEMERGENCE 0250 GM/HA | [7]; POSTEMERGENCE 0500 GM/HA
85%: [5]; POSTEMERGENCE 0500 GM/HA
50%: [5]; POSTEMERGENCE 0125 GM/HA | [5]; POSTEMERGENCE 0250 GM/HA | [6]; POSTEMERGENCE 0250 GM/HA
20%: [1]; POSTEMERGENCE 0125 GM/HA | [1]; POSTEMERGENCE 0250 GM/HA | [3]; POSTEMERGENCE 0250 GM/HA | [3]; PREEMERGENCE 0250 GM/HA | [4]; POSTEMERGENCE 0250 GM/HA | [5]; POSTEMERGENCE 0064 GM/HA | [6]; POSTEMERGENCE 0125 GM/HA
60%: [3]; POSTEMERGENCE 0500 GM/HA

C=C(c1ccccc1)C(O)(Cn1cncn1)c1ccc(Cl)cc1 (centres unmarked) [Example 51, 2-(4-Chlorophenyl)-3-phenyl-1-(1H-1,2,4-triazol-1-yl)-3-buten-2-ol]
0%: [1]; POSTEMERGENCE 0064 GM/HA | [1]; POSTEMERGENCE 0125 GM/HA | [1]; POSTEMERGENCE 0250 GM/HA | [1]; POSTEMERGENCE 0500 GM/HA | [2]; POSTEMERGENCE 0064 GM/HA | [2]; POSTEMERGENCE 0125 GM/HA | [2]; POSTEMERGENCE 0250 GM/HA | [2]; POSTEMERGENCE 0500 GM/HA | [2]; PREEMERGENCE 0500 GM/HA | [3]; POSTEMERGENCE 0064 GM/HA | [3]; POSTEMERGENCE 0125 GM/HA | [3]; POSTEMERGENCE 0250 GM/HA | [3]; POSTEMERGENCE 0500 GM/HA | [3]; PREEMERGENCE 0500 GM/HA | [4]; POSTEMERGENCE 0064 GM/HA | [4]; POSTEMERGENCE 0125 GM/HA | [4]; POSTEMERGENCE 0250 GM/HA | [4]; POSTEMERGENCE 0500 GM/HA | [5]; POSTEMERGENCE 0064 GM/HA | [6]; POSTEMERGENCE 0064 GM/HA | [6]; POSTEMERGENCE 0500 GM/HA | [6]; PREEMERGENCE 0500 GM/HA | [7]; POSTEMERGENCE 0064 GM/HA | [7]; POSTEMERGENCE 0125 GM/HA | [7]; POSTEMERGENCE 0250 GM/HA | [7]; POSTEMERGENCE 0500 GM/HA
40%: [5]; POSTEMERGENCE 0250 GM/HA
100%: [5]; PREEMERGENCE 0500 GM/HA
30%: [1]; PREEMERGENCE 0500 GM/HA
70%: [7]; PREEMERGENCE 0500 GM/HA
20%: [4]; PREEMERGENCE 0500 GM/HA | [5]; POSTEMERGENCE 0125 GM/HA | [6]; POSTEMERGENCE 0125 GM/HA | [6]; POSTEMERGENCE 0250 GM/HA
60%: [5]; POSTEMERGENCE 0500 GM/HA

C=C(c1ccccc1Cl)C(O)(Cn1cncn1)c1ccc(F)cc1F (centres unmarked) [Example 35]
100%: [12]; PREEMERGENCE 0500 GM/HA | [13]; PREEMERGENCE 0500 GM/HA | [14]; PREEMERGENCE 0500 GM/HA
20%: [9]; POSTEMERGENCE 0500 GM/HA | [15]; PREEMERGENCE 0500 GM/HA
50%: [8]; POSTEMERGENCE 0500 GM/HA | [10]; PREEMERGENCE 0500 GM/HA | [13]; POSTEMERGENCE 0250 GM/HA | [13]; POSTEMERGENCE 0500 GM/HA | [13]; PREEMERGENCE 0250 GM/HA | [14]; PREEMERGENCE 0125 GM/HA
60%: [9]; PREEMERGENCE 0250 GM/HA | [12]; POSTEMERGENCE 0500 GM/HA | [12]; PREEMERGENCE 0125 GM/HA | [14]; POSTEMERGENCE 0500 GM/HA
30%: [9]; PREEMERGENCE 0064 GM/HA | [9]; PREEMERGENCE 0125 GM/HA | [13]; PREEMERGENCE 0125 GM/HA | [15]; POSTEMERGENCE 0500 GM/HA
0%: [8]; POSTEMERGENCE 0250 GM/HA | [8]; PREEMERGENCE 0064 GM/HA | [8]; PREEMERGENCE 0125 GM/HA | [8]; PREEMERGENCE 0250 GM/HA | [8]; PREEMERGENCE 0500 GM/HA | [9]; POSTEMERGENCE 0250 GM/HA | [10]; POSTEMERGENCE 0250 GM/HA | [10]; POSTEMERGENCE 0500 GM/HA | [10]; PREEMERGENCE 0125 GM/HA | [10]; PREEMERGENCE 0250 GM/HA | [11]; POSTEMERGENCE 0250 GM/HA | [11]; POSTEMERGENCE 0500 GM/HA | [12]; PREEMERGENCE 0064 GM/HA | [13]; PREEMERGENCE 0064 GM/HA | [14]; POSTEMERGENCE 0250 GM/HA | [14]; PREEMERGENCE 0064 GM/HA | [15]; POSTEMERGENCE 0250 GM/HA | [15]; PREEMERGENCE 0064 GM/HA | [15]; PREEMERGENCE 0125 GM/HA | [15]; PREEMERGENCE 0250 GM/HA
40%: [12]; POSTEMERGENCE 0250 GM/HA | [12]; PREEMERGENCE 0250 GM/HA
80%: [9]; PREEMERGENCE 0500 GM/HA | [14]; PREEMERGENCE 0250 GM/HA
